The source of these data is paper PMC9271048, “Probing strigolactone perception mechanisms with rationally designed small-molecule agonists stimulating germination of root parasitic weeds” (Nature Communications, 2022).

Assay [1] has as its target T1, ShHTL7 (Striga hermonthica, UniProt A0A0M3PNA2). The assay can be described thus: Competitive inhibition of ShHTL7 with Yoshimulactone Green (YLG) as substrate. Format: biochemical. The protocol:
Based on the structural feature of the lead compound 2h, we selected three regions to perform further modification (Supplementary Fig. 6), to try to further improve bioactivity. Insertion of a carbonyl group between the bicyclo[2.2.1]hept-5-en-2-yl group and the piperazine ring was detrimental to binding affinity (Supplementary Fig. 6, region A). Removal of an oxygen atom in region B was found unfavorable to binding affinity as well. Therefore, we focused on modifying the benzene ring (region C) for 2h. A series of compounds with different groups at region C was synthesized (Supplementary Scheme 1). […] As SPR just measures the binding ability, another independent assay by using Yoshimulactone Green (YLG) as the fluorescent substrate was performed to determine the half-maximal inhibitory concentration (IC50) of these compounds against ShHTL7[22].
The excitation and emission wavelengths of YLG are 480 and 520 nm, respectively. We used a fluorescence spectrophotometer (CARY Eclipse) to detect the fluorescence intensity change of YLG during the enzymatic hydrolysis assay process. All the testing compounds and YLG were dissolved in DMSO and prepared as stock solutions just before use. […] The changes of fluorescence at 520 nm of each well were recorded every 1 min for 30 min. Using the reaction mixture without adding enzyme and tested compounds as the background control. After subtracting the background hydrolysis, a linear fluorescence increase in 8 min was used for further inspection. The IC50 values were determined via fitting relative inhibition percentages with the varying concentrations of compounds in Microsoft Excel.

Assay [2] concerns the target T1, ShHTL7. The assay can be described thus: biochemical. Format: binding. The protocol:
We used a sensitive, high-throughput Surface plasmon resonance (SPR) method to examine the binding affinities of the 51 candidates to the recombinant ShHTL7 protein, which was immobilized on the CM5 sensor chip. rac-GR24 was used as a positive control.
The interactions of small molecules with recombinant ShHTL7 were evaluated using the Biacore T200 system (GE Healthcare, USA) at 25 °C[47]. The purified ShHTL7 protein was immobilized on a CM5 sensor chip using the standard amine coupling procedure. […] PBS-P (10 mM phosphate buffer, 2.7 mM KCl, 137 mM NaCl, 0.05% Surfactant P20) containing 0.5% DMSO was used as the running buffer. For the screening experiments, candidates with different structures at 50 μM in the running buffer were injected individually at a flow rate of 30 μL min^−1. For binding affinity studies, compounds with different concentrations in running buffer were used. During the experiments, both the contact and dissociation times were set as 1 min. Data analysis was performed using the Biacore Evaluation Software (T200 Version 2.0). The affinity values (KD) were obtained by the kinetics analysis or the steady-state affinity method.

Another assay concerns P. aegyptiaca seeds. The assay can be described thus: P. aegyptiaca seed germination assay. Format: in vivo, Phelipanche aegyptiaca. The arrangement: P. aegyptiaca germination EC50 values, source data average: unit not given here; P. aegyptiaca seed germination activity, source data average: unit of the concentration uncertain. The following applies: for P. aegyptiaca germination(%): Supplementary Table 1, compounds tested at 10 μM, means ± SD, n = 3; for P. aegyptiaca germination EC50 values, source data average: source data of Fig. 2c and Supplementary Fig. 8b; for P. aegyptiaca seed germination activity, source data average: Supplementary Fig. 9b. The protocol: P. aegyptiaca seeds were harvested from Xinjiang province, China in 2017. The seeds were surface sterilized using 1% NaClO solution for 2 min and then washed with distilled water six times. For seed germination assay, about 20 pieces of glass fiber-filter paper discs (15 mm diameter, Whatman GF/B) were placed separately on two layers of filter papers (9 cm diameter, Whatman) in a Petri dish. Five milliliters of distilled water was added to each Petri dish to wet the papers. Approximately 40–90 sterilized seeds were spread onto each glass fiber-filter paper disc. After the seeds were conditioned in the dark at 25 °C for 4 days[48], glass fiber-filter paper discs were blotted dry on filter papers (9 cm) and transferred to the wells of 24-well cell culture plates. The testing compounds were dissolved in acetone and diluted with H2O (VH2O/Vacetone = 999/1) just before use[49]. rac-GR24 and 1‰ acetone solution were used as positive and negative controls, respectively. One hundred microliters of the test solution was added to each well of the plates, and all treatments were performed in three biological repeats. The plates were sealed and incubated in the dark at 25 °C for a week. The experiments were performed at least three times. The germinated seeds were observed by using an electronic magnifier at ×20 magnification.

The mark [3] stands for this setting: YLG used as the substrate, means ± SD, n = 3, read-out: IC50 (Supplementary Table 1).
Where [4] appears, read: recombinant ShHTL7 immobilized on CM5 chip, 25 °C, read-out: KD (SPR).
The mark [5] stands for this setting: wild-type ShHTL7, average of 3, source data of Fig. 2a,b, Supplementary Figs. 8a, 9a, 20b, read-out: IC50, competitive ShHTL7 inhibition (YLG), source data average.
Where [6] appears, read: Supplementary Table 7, binding affinities between ShHTL7 and agonists by SPR, read-out: KD/μM.
Where [7] appears, read: IC50 (Supplementary Table 1), YLG used as the substrate, means ± SD, n = 3.

Like-named read-outs stand apart in the source and are kept apart here.

T1 sequence (A0A0M3PNA2 entry or part of it): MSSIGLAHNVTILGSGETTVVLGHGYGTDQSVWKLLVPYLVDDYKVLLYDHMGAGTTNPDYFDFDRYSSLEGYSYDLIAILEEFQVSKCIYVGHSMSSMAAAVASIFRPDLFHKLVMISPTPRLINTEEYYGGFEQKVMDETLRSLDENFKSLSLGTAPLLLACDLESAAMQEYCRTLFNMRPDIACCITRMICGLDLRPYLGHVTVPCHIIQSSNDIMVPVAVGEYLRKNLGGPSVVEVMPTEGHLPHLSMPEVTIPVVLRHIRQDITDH

With `Cc1cc(Cl)ccc1OCC(=O)N1CCN(CC2CC3C=CC2C3)CC1` (stereo not drawn) [3e], the IC50 at ShHTL7 [1] (setting [3]) came out at 8.28 ± 1.12 µM. In addition, at ShHTL7 [2] (setting [4]), the Kd stood at 0.65 µM. In the assay with P. aegyptiaca seeds, the “P. aegyptiaca germination(%)” value turned out to be 7.0%.
As to `O=C(COc1ccc2ccccc2c1Br)N1CCN(CC2CC3C=CC2C3)CC1` (stereo not drawn) [3c], the IC50 on ShHTL7 [1] (setting [3]) turned out to be 6.12 ± 0.34 µM. In addition, the “P. aegyptiaca germination(%)” value in the assay with P. aegyptiaca seeds is on record as 17.1%.
For `COc1cc(C(=O)N2CCN(CC3CC4C=CC3C4)CC2)cc(OC)c1OC` (stereo not drawn) [2c], the Kd on ShHTL7 [2] was 6.66 ± 0.2 µM.
Take `CCCCOc1ccc(S(=O)(=O)N2CCN(C(=O)OC3C=C(C)C(=O)O3)CC2)cc1` (stereo not drawn) [SPL7, reference compound]: the IC50 at ShHTL7 [1] (setting [5]) is 4.31 µM. Further, on ShHTL7 [2] (setting [6]), the Kd amounted to 4.81 ± 0.02 µM. The “P. aegyptiaca germination EC50 values, source data average” value in the assay with P. aegyptiaca seeds (average of 3) was 7.443.
On ShHTL7 [1] (setting [7]), `Cc1cccc(OCC(=O)N2CCN(CC3CC4C=CC3C4)CC2)c1` (stereo not drawn) [2f] displayed an IC50 of 10.7 ± 0.96 µM. Further, the Kd on ShHTL7 [2] was determined as 11.2 ± 0.16 µM. In addition, the “germination of P. aegyptiaca seeds, source data average” value in the assay on P. aegyptiaca seeds (10 μM, Fig. 1d source data, average of 3) worked out at 18.7364%. Further, the “P. aegyptiaca germination(%)” value with P. aegyptiaca seeds turned out to be 20.5%.
`O=C(COc1cc(Cl)ccc1Cl)N1CCN(CC2CC3C=CC2C3)CC1` (stereo not drawn) [3k]: on ShHTL7 [1] (setting [3]), the IC50 came to 32.2 ± 1.99 µM. For the same molecule, in the assay with P. aegyptiaca seeds, the “P. aegyptiaca germination(%)” value was determined as 43.5%.
On the same counts, the results for `Cc1cc([N+](=O)[O-])ccc1OCC(=O)N1CCN(CC2CC3C=CC2C3)CC1` (stereo not drawn) [3h] are 10 ± 0.59 µM and 22.0%.
Regarding `CCCCOc1ccc(S(=O)(=O)N2CCN(C(=O)OC3C=C(C)C(=O)N3C)CC2)cc1` (stereo not drawn) [4j], the IC50 at ShHTL7 [1] (setting [5]) is 105 µM. On ShHTL7 [2] (setting [6]), the Kd was 18.1 ± 6.29 µM. Besides, the “P. aegyptiaca seed germination activity, source data average” value in the assay on P. aegyptiaca seeds (0.1 (unit uncertain) as printed) worked out at 4.315%; in the assay on P. aegyptiaca seeds (1 (unit uncertain) as printed) it was 14.0733%; with P. aegyptiaca seeds (10 (unit uncertain) as printed), 45.7326%.
On to `CC1=CC(OC(=O)N2CCN(C(=O)C(F)(F)Oc3ccc(Br)cc3C)CC2)OC1=O` (stereo not drawn) [4f], for which the IC50 on ShHTL7 [1] (setting [5]) amounted to 4.25 µM. For the same molecule, the Kd at ShHTL7 [2] (setting [6]) is 1.96 ± 0.29 µM. Further, in the assay on P. aegyptiaca seeds (average of 3), the “P. aegyptiaca germination EC50 values, source data average” value came to 6.406.
Turning to `Cc1ccc(OCC(=O)N2CCN(C(=O)C3CC4C=CC3C4)CC2)cc1` (stereo not drawn) [3a], the half-maximal inhibitory concentration (IC50) at ShHTL7 [1] (setting [3]) stood at 35.6 ± 3.84 µM. In addition, the “P. aegyptiaca germination(%)” value in the assay with P. aegyptiaca seeds turned out to be 19.4%.
For the molecule `C1=CC2CC1CC2CN1CCNCC1` (stereo not drawn) [ZJT1], at ShHTL7 [1] (YLG used as the substrate, read-out: IC50 (Supplementary Table 1), symbol), the IC50 was more than 400 µM. Besides, in the assay on P. aegyptiaca seeds, the “P. aegyptiaca germination(%)” value is given as 1.6%.
With `O=C(COc1ccc([N+](=O)[O-])cc1)N1CCN(CC2CC3C=CC2C3)CC1` (stereo not drawn) [3p], at ShHTL7 [1] (setting [3]), the IC50 amounted to 15.6 ± 0.37 µM. The “P. aegyptiaca germination(%)” value with P. aegyptiaca seeds is listed as 18.6%.
Molecule `O=C(c1cccs1)N1CCN(CC2CC=CCC2)CC1` (stereo not drawn) [2b] displayed a Kd at ShHTL7 [2] of 10.5 ± 0.67 µM.
Regarding `O=C(COc1c(F)c(F)c(F)c(F)c1F)N1CCN(CC2CC3C=CC2C3)CC1` (stereo not drawn) [3g], the IC50 on ShHTL7 [1] (setting [7]) was 0.23 ± 0.03 µM; at ShHTL7 [1] (IC50, competitive ShHTL7 inhibition (YLG), source data average, wild-type ShHTL7, average of 3, source data of Fig. 2a,b, Supplementary Figs. 8a, 9a, 20b), 2.08 µM. Moreover, the Kd on ShHTL7 [2] stood at 0.47 µM. The “P. aegyptiaca germination(%)” value in the assay with P. aegyptiaca seeds is given as 5.7%.
Turning to `Cc1cc(F)ccc1OCC(=O)N1CCN(CC2CC3C=CC2C3)CC1` (stereo not drawn) [3d], at ShHTL7 [1] (setting [3]), the IC50 came to 10.7 ± 2.93 µM. On ShHTL7 [2] (setting [4]), the Kd turned out to be 1.86 µM. The “P. aegyptiaca germination(%)” value with P. aegyptiaca seeds is 23.1%.
